Test system: converting enzyme (enzyme for conversion of angiotensin I to angiotensin II)
Experiment: Inhibition of the converting enzyme (angiotensin I / angiotensin II pressor response) after oral administration to unanesthetized dogs
Format: in vivo
Conditions: 1 mg/kg
Method: The compound of the invention for which E=H was tested by oral administration on unanesthetized dogs. The arterial blood pressure of the dogs was measured with a pressure gauge ("Statham P23 Db") after catheterization of the aorta via the femoral artery. The recording is carried out with a recording apparatus ("Brush 400"). Angiotensin I and angiotensin II are injected into the animals intravenously at doses of 0.5 and 0.10 γ/kg, respectively. A dose/activity curve is established for each of these hormones. The compound according to the invention for which E=H is then administered orally at a dose of 1 mg/kg. A second dose/activity curve is then established for angiotensin I and for angiotensin II after administration of the test product.

Cl.NCCCC[C@H](N[C@@H](CCc1ccccc1)C(=O)O)C(=O)N1C2CCC(CC2)[C@H]1C(=O)O [compound of the invention for which E=H, (3S)-2-{(S)-N-[(S)-1-carboxy-3-phenylpropyl]lysyl}-3-carboxy-2-azabicyclo[2.2.2]octane hydrochloride]
percentage inhibition of the converting enzyme (15 minutes after administration): 80%
percentage inhibition of the converting enzyme (30 minutes after administration): ~100%
percentage inhibition of the converting enzyme (6 hours after administration): greater than 70%

Source: patent US4959372A, “Anti-hypertensive substituted 2-azabicyclooctane-3-carboxylic acids” (Adir et lie, priority 1987, dated 1990)
